These results are taken from patent US6548522B1, “Method for treating conditions related to the glutamate receptor using carboxylic acid amide derivatives” (Hoffmann-La Roche Inc., priority 1999, dated 2003).

Series [1] has as its target T1, rat mGlu1a receptor (Rattus norvegicus, UniProt P23385).
T1 construct: expressed in transfected cells; host or cells: EBNA cells (transient transfection)
Description: [Ca2+]i measurement (FLIPR) on mGlu1a transfected EBNA cells. Type of series: cell-based. Conditions: for EC50: mGlu1a transfected EBNA cells, Fluo-3 AM, antagonists tested against 10 μM glutamate as agonist; for agonist or antagonist on group I mGlu receptor: mode of action, in words. As to the method: cDNA encoding for rat mGlula receptor obtained from Prof.
[Ca^2+]i measurement were performed on mGlu1a transfected EBNA cells after incubation of the cells with Fluo-3 AM (0.5 μM final concentration) for 1 hour at 37° C. followed by 4 washes with assay buffer (DMEM supplemented with Hank's salt and 20 mM HEPES). [Ca^2+]i measurement were done using a fluorometric imaging plate reader (FLIPR, Molecular Devices Corporation, La Jolla, Calif., USA). When compounds were evaluated as antagonists they were tested against 10 μM glutamate as agonist.
The inhibition (antagonists) or activation (agonists) curves were fitted with a four parameter logistic equation giving EC50, IC50and Hill coefficient using the iterative non linear curve fitting software Origin (Microcal Software Inc., Northampton, Mass., USA).

T1 sequence (P23385 19-1199): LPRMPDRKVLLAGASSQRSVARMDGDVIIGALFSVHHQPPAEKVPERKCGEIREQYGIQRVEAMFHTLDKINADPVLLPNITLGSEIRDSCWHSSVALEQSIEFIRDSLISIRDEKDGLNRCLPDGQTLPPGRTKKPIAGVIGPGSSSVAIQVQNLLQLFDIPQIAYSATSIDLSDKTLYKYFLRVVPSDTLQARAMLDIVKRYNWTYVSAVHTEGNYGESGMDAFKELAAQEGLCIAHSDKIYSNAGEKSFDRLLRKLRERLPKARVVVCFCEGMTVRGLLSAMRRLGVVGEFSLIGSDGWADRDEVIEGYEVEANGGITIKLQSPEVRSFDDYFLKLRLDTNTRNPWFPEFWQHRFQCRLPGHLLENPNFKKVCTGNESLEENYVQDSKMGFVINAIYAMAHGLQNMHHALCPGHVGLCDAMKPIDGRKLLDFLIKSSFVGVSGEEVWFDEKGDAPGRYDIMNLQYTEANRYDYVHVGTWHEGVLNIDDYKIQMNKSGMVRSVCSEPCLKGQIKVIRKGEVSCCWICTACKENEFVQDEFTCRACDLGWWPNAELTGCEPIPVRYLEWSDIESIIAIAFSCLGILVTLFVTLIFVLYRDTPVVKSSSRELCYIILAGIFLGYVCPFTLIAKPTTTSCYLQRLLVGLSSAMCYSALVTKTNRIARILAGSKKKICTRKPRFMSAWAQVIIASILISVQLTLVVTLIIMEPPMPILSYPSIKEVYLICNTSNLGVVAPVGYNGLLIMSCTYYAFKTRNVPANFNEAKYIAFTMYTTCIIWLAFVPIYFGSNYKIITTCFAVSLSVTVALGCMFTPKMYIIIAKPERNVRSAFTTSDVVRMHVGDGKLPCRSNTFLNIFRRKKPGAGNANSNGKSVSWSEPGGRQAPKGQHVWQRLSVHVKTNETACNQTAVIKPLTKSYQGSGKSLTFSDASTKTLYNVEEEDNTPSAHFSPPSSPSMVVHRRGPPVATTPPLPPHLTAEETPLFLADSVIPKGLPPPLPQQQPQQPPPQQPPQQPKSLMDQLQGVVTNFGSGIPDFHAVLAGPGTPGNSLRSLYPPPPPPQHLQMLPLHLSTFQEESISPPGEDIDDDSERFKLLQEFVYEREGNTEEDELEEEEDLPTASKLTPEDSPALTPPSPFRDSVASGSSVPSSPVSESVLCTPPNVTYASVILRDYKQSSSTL

The melting point is the temperature of the solid-liquid transition. `CC(C)CCNC(=O)C(c1ccccc1)c1ccccc1` [Example 15, N-(3-Methyl-butyl)-2,2-diphenyl-acetamide] showed a melting point of 128 °C.

Compound `CCOCCNC(=O)C(c1ccccc1)c1ccccc1` [Example 20, N-(2-Ethoxy-ethyl)-2,2-diphenyl-acetamide] had a melting point of 83.5 to 86.2 °C. With `O=C(NCC1CC1)C(c1ccccc1)c1ccccc1` [Example 10, N-Cyclopropylmethyl-2,2-diphenyl-acetamide], the melting point was 130 °C. `CCNC(=O)C(c1ccccc1)c1ccccc1` [Example 12, N-Ethyl-2,2-diphenyl-acetamide]: the melting point worked out at 87 °C. As usually defined, the EC50 is the concentration at which the effect is half-maximal. Compound `CCCOCCNC(=O)C(c1ccccc1)c1ccccc1` [Example 21, 2,2-Diphenyl-N-(2-propoxy-ethyl)-acetamide] showed a melting point of 77.8 to 78.9 °C. Also, the concentration for a half-maximal effect (EC50) in series [1] was 3.13 µM. `COCCCCCNC(=O)C(c1ccccc1)c1ccccc1` [Example 18, N-(5-Methoxy-pentyl)-2,2-diphenyl-acetamide]: the melting point lay within 74.2 to 75 °C.

In turn, `C#CCCCNC(=O)C(c1ccccc1)c1ccccc1` [Example 28, N-Pent-4-ynyl-2,2-diphenyl-acetamide] displayed a melting point of 90 °C. The same measure, in the same setting: in the case of `CCCCCNC(=O)C(c1ccccc1)c1ccccc1` [Example 1, N -Pentyl-2,2-diphenyl-acetamide] it was 101 °C; in that of `CCCCNC(=O)C(c1ccccc1)c1ccccc1` [Example 5, N-Butyl-2,2-diphenyl-acetamide], 96 °C.

`CC(C(=O)NCC1CC1)(c1ccccc1)c1ccccc1` [Example 11, N-Cyclopropylmethyl-2,2-diphenyl-propionamide] registered a melting point of 380 °C. The “agonist or antagonist on group I mGlu receptor” value (“agonist or antagonist” for short) in series [1] is on record as “antagonistic activity”.

In turn, `C#CCNC(=O)C(c1ccccc1)c1ccccc1` [Example 14, 2,2-Diphenyl-N-prop-2-ynyl-acetamide] registered a melting point of 131 °C. On to `O=C(NCC1CC1)C(c1ccccc1)c1ccccn1` (racemic) [Example 22, (RS)-N-Cyclopropylmethyl-2-phenyl-2-pyridin-2-yl-acetamide], for which the “agonist or antagonist” value in series [1] is reported as “antagonistic activity”. With `C=CCNC(=O)C(c1ccccc1)c1ccccc1` [Example 13, N-Allyl-2,2-diphenyl-acetamide], the melting point was found to be 186 °C.

With `CCCCCCCNC(=O)C(c1ccccc1)c1ccccc1` [Example 8, N-Heptyl-2,2-diphenyl-acetamide], the melting point came to 90 °C. `CCCCCCNC(=O)C(c1ccccc1)c1ccccc1` [Example 9, N-Hexyl-2,2-diphenyl-acetamide] displayed a melting point of 100 °C.

`O=C(NCCCC(F)(F)F)C(c1ccccc1)c1ccccc1` [Example 26, 2,2-Diphenyl-N-(4,4,4-trifluoro-butyl)-acetamide] showed a melting point of 166 °C. Besides, in series [1], the EC50 stood at 15 µM and the “agonist or antagonist” value is recorded as “antagonistic activity”.

Consider `CCCCNC(=O)C(C)(c1ccccc1)c1ccccc1` [Example 6, N-Butyl-2,2-diphenyl-propionamide], for which the “agonist or antagonist” value in series [1] is “antagonistic activity”. As to `CC(C(=O)NCC1CCC1)(c1ccccc1)c1ccccc1` [Example 25, N-Cyclobutylmethyl-2,2-diphenyl-propionamide], the melting point stood at 79 °C. Further, the “agonist or antagonist” value in series [1] is listed as “antagonistic activity”. Compound `CC=CCCCNC(=O)C(c1ccccc1)c1ccccc1` [Example 17, N-Hex-4-enyl-2,2-diphenyl-acetamide] had a melting point of 85 °C. `COCCCCNC(=O)C(c1ccccc1)c1ccccc1` [Example 19, N-(4-Methoxy-butyl)-2,2-diphenyl-acetamide] yielded a melting point of 75.5 to 76.8 °C. The same compound had a concentration giving a half-maximal response (EC50) in series [1] of 2.98 µM.

Regarding `CCCC=CCNC(=O)C(c1ccccc1)c1ccccc1` [Example 16, N-Hex-2-enyl-2,2-diphenyl-acetamide], the melting point came to 81 °C. Turning to `CC(C(=O)NCCCC(F)(F)F)(c1ccccc1)c1ccccc1` [Example 27, 2,2-Diphenyl-N-(4,4,4-trifluoro-butyl)-propionamide], the melting point amounted to 82 °C. Further, the “agonist or antagonist” value in series [1] is recorded as “antagonistic activity”. The compound `O=C(NC1CC1)C(c1ccccc1)c1ccccc1` [Example 7, N-Cyclopropyl-2,2-diphenyl-acetamide] had a melting point of 292 °C. Also, the EC50 in series [1] stood at 17 µM.

In turn, `CCCNC(=O)C(C)(c1ccccc1)c1ccccc1` [Example 3, 2,2-Diphenyl-N-propyl-propionamide] gave a melting point of 62 °C. Moreover, in series [1], the EC50 was found to be 12.7 µM and the “agonist or antagonist” value is recorded as “antagonistic activity”.

In the case of `CCCCCNC(=O)C(C)(c1ccccc1)c1ccccc1` [Example 4, N-Pentyl-2,2-diphenyl-propionamide], in series [1], the concentration for a half-maximal effect (EC50) was determined as 1 µM and the “agonist or antagonist” value is listed as “antagonistic activity”. Regarding `CCCNC(=O)C(c1ccccc1)c1ccccc1` [Example 2, 2,2-Diphenyl-N-propyl-acetamide], the melting point was 90 °C. Also, in series [1], a half-maximal effect (EC50) was put at 2.12 µM.
